In ChEMBL document CHEMBL1132357, “Synthesis and properties of 3-(2-hydroxyethyl)-3-n-pentyldiazirine, a photoactivable general anesthetic” (J Med Chem, 1999):

Assay: The compound was tested for anesthetic potency in tadpoles
Type: functional, frog

CCCCCC1(CCO)N=N1 showed an EC50 of 160 µM.
